Here are results for 2 compounds from a compilation of properties of binary mixtures (doi:10.1016/j.molliq.2020.113127).

The nature of this series: xn = mol fraction of the nth substance listed. The following applies: 101 kPa.

One may read the viscosity as the resistance of a fluid to flow. Read a low viscosity as a thin fluid. For the compound `CC[N+](CC)(CC)CC.[Cl-]` + CC(=O)O, the viscosity (298.15 K, x1 = 0.333) came out at 34.46 mPa·s; the viscosity (303.15 K, x1 = 0.333) stood at 27.81 mPa·s; the viscosity (308.15 K, x1 = 0.333) was determined as 22.91 mPa·s; the viscosity (313.15 K, x1 = 0.333) was 19.51 mPa·s; the viscosity (318.15 K, x1 = 0.333) amounted to 16.53 mPa·s; the viscosity (323.15 K, x1 = 0.333) is given as 13.93 mPa·s.

For `C[P+](c1ccccc1)(c1ccccc1)c1ccccc1.[Br-]` + OCCO, the viscosity reads like this: (313.15 K, x1 = 0.25) 53.81 mPa·s; (318.15 K, x1 = 0.25) 40.74 mPa·s; (328.15 K, x1 = 0.25) 25.16 mPa·s; (333.15 K, x1 = 0.25) 20.33 mPa·s.
